{"source": "patent US20260015339A1", "about": "“CALIX[4]ARENES WITH HIGH ANTICANCER ACTIVITY” (UNIVERSITE GRENOBLE ALPES, priority 2023, published 2026)", "key": {"[1]": {"assay": "Cu^+ transport into liposomes with encapsulated BCS", "settings": "POPC/cholesterol 7:3 LUVs, calix[4]arene to lipid 1:1000, 50 μM copper gradient, F/F0 after 600 s", "protocol": "The ability of the examples of calix[4]arenes of the invention and the comparative examples to be delivered into a lipidic bilayer membrane of a liposome from a solution and their capacity to then act as a transporter of Cu^+ was evaluated using bathocuproine disulphonate (hereafter abbreviated “BCS”) encapsulated in large unilamellar vesicles (LUVs, also referred to as liposomes) composed of 1-palmitoyl-2-oleoyl-sn-glycero-3-phosphocholine and cholesterol in a 7:3 ratio.\nBCS is a fluorescent water soluble phenantroline derivative that can be used as fluorescent dye for the sensing of Cu^+ through the formation of a non-fluorescent 2:1 complex.\nStock solution of lipids were prepared using deacidified CHCl3 and stored in a freezer. CHCl3 was deacidified by passing through activated basic alumina. The lipids used to prepare the liposomes were 2-oleoyl-1-palmitoyl-sn-glycero-3-phosphocholine (POPC), (purity ≥99%) and cholesterol (purity of 95%). 50 mM sodium phosphate buffer were prepared with Millipore water at pH 7 (±0.1) by mixing the solution of the mono- and the di-protonated phosphate salts. The solution of the dye (BCS) was prepared at 0.5 mM concentration in phosphate buffer.\nThe lipids solutions were mixed in different ratios in a 5 mL round bottom flask. The POPC/cholesterol molar ratio was 7:3 in all experiments. The total amount of lipids per batch varied depending on the amount of liposomes solution required for the experiment. After mixing the lipid solutions in a round bottom flask, the chloroform was evaporated under a gentle air flow and the resulting lipid film was dried at high vacuum for at least an hour. 500 μL of the BCS solution in phosphate buffer and a magnetic stir bar were added to the flask. The flask was then sonicated for 30 seconds and placed under magnetic agitation for at least an hour. The solution was frozen with liquid nitrogen and heated back to room temperature with warm water ten times to form large unilamellar vesicles (LUVs). The liposome solution was extruded 29 times, using an extrusion kit equipped with a membrane with 200 nm pores. Subsequently, the solution was eluted with the buffer solution used for the experiment through a size exclusion column (Sephadex G-25) to remove the external BCS and then diluted with phosphate buffer to obtain a concentration of 0.4 mM in lipids.\nSolutions of the calix[4]arenes were prepared at a concentration of 0.24 mM in DMSO and 5 μL of the solution was added 2 minutes before each transport measurement.\nAlternatively, calix[4]arenes were pre-incorporated by combining the calix[4]arene (dissolved in chloroform) with the lipids prior to the evaporation of the chloroform to obtain a lipid film. The concentrations and volumes were chosen to obtain a calix[4]arene to lipid of 1:1000.\nFluorescence measurements were performed with a Horiba FluoroMax 4 spectrometer using a 4-faced quartz cuvette (10 mm×10 mm). For the Cu^+ transport assay, the excitation was set at 278 nm and emission was recorded at 393 nm. These values correspond to the excitation and emission maxima of BCS encapsulated inside LUVs.\nThe Cu^+ solutions added to the liposomes were obtained by dissolving Cu(MeCN)4BF4 in MeCN at 15.25 mM concentration. The copper solution was then diluted by a factor 5 in a phosphate buffer during the first 30 seconds of the experiment to reach a copper concentration of 3.05 mM. 50 μL of the diluted copper solution was added to 3 mL of liposomes, resulting in a copper gradient of 50 μM. The fluorescence level was monitored for 600 seconds after the addition of the copper solution.\nFor each run the initial plateau and the initial vertical drop (due to the binding of the exterior dye with Cu^+ and the dilution, 1-4 seconds after the addition) were removed. Then the signal was normalised by dividing the fluorescence values (F) by the value at t=0 second (F0). […]"}, "[2]": {"system": "PC9 human lung cancer cell line", "assay": "Inhibition of PC9 cell proliferation (cell count)", "format": "cell-based", "settings": "3 μM, until 72 hours", "protocol": "(§1) The inhibition of a PC9 human lung cancer cell line proliferation by the calix[4]arene of the formulation (2) was determined by exposure of said PC9 human lung cancer cell line to a concentration of 3 μM of the compound of the formula (2) until 72 hours. The absolute number of cells were counted in the treated and untreated conditions before treatment (N0) and after 72 hours (Nt).\nThe FIG. 2 is a graph showing: • the profile of the proliferation index Nt/N0 of the PC9 cells after exposure with the calix[4]arene of the formula (2) with respect to the time (i.e. the curve entitled “calix[4]arene (2)”), • the profile of the proliferation index Nt/N0 of the PC9 cells without any exposure with the calix[4]arene of the formula (2) with respect to the time (i.e. the curve entitled “untreated”)."}, "[3]": {"system": "PC9 human lung cancer cells", "assay": "MTS cytotoxicity assay, combination with CuCl2, PC9", "settings": "Homo sapiens, 72 h, read-out: percentage of cell viability", "description": "PC9 human lung cancer cells were seeded in 96-well plates together with the calix[4]arene of the formula (2) and CuCl2. Cells were grown in RPMI-1640 supplemented with GlutaMAX™ (Gibco™) and fetal calf serum (FCS, 10%) treated with a broad range of concentrations of the calix[4]arene of the formula (2) or/and CuCl2 from Merck. After 72 hours of treatment, the cytotoxicity was measured by means of the IC50 value, using the kit “CellTiter 96R AQuous One Solution Cell Proliferation Assay (MTS)” from Promega™. Following 30 minutes of incubation with the MTS reagent, the endpoint measurements were done in triplicate at 485 nm, using a fluorescence plate reader."}, "[4]": {"system": "PC9 human lung cancer cells", "assay": "MTS cytotoxicity assay on PC9", "format": "cell-based", "settings": "PC9, 72 hours of treatment", "description": "PC9 human lung cancer cells were seeded in 96-well plates together with the calix[4]arene of the formula (2). Cells were grown in RPMI-1640 supplemented with GlutaMAX™ (Gibco™) and fetal calf serum (FCS, 10%) and treated with a broad range of concentrations of the calix[4]arene of the formula (2). After 72 hours of treatment, the cytotoxicity was measured by means of the IC50 value, using the kit “CellTiter 96R AQuous One Solution Cell Proliferation Assay (MTS)” from Promega™. Following 30 minutes of incubation with the MTS reagent, the endpoint measurements were done in triplicate at 485 nm, using a fluorescence plate reader.\nPC9 human lung cancer cells were seeded in 96-well plates together with the 2nd comparative example of the formula (XI). Cells were grown in RPMI-1640 supplemented with GlutaMAX™ (Gibco™) and fetal calf serum (FCS, 10%) and treated with a broad range of concentrations of the compound of the 2nd comparative example of the formula (XI). After 72 hours of treatment, the cytotoxicity was measured by means of the IC50 value, using the kit “CellTiter 96R AQuous One Solution Cell Proliferation Assay (MTS)” from Promega™. Following 30 minutes of incubation with the MTS reagent, the endpoint measurements were done in triplicate at 485 nm, using a fluorescence plate reader. […]"}, "[5]": {"system": "Non-malignant HaCaT cells", "assay": "MTS cytotoxicity assay on HaCaT", "format": "cell-based", "settings": "Homo sapiens, 72 hours of treatment", "description": "Non-malignant HaCaT cells were seeded in 96-well plates together with the calix[4]arene of the formula (2). Cells were grown in RPMI-1640 supplemented with GlutaMAX™ (Gibco™) and fetal calf serum (FCS, 20%) and treated with a broad range of concentrations of the calix[4]arene of the formula (2). After 72 hours of treatment, the cytotoxicity was measured by means of the IC50 value, using the kit “CellTiter 96R AQuous One Solution Cell Proliferation Assay (MTS)” from Promega™. Following 30 minutes of incubation with the MTS reagent, the endpoint measurements were done in triplicate at 485 nm, using a fluorescence plate reader."}, "[6]": {"system": "H322 lung carcinoma cells", "assay": "MTS cytotoxicity assay, combination with CuCl2, H322", "settings": "NCI-H322, 72 h, read-out: percentage of cell viability", "description": "H322 lung carcinoma cells were seeded in 96-well plates together with the calix[4]arene of the formula (2) and CuCl2. Cells were grown in RPMI-1640 supplemented with GlutaMAX™ (Gibco™) and fetal calf serum (FCS, 10%) treated with a broad range of concentrations of the calix[4]arene of the formula (2) or/and CuCl2 from Merck. After 72 hours of treatment, the cytotoxicity was measured by means of the IC50 value, using the kit “CellTiter 96R AQuous One Solution Cell Proliferation Assay (MTS)” from Promega™ Following 30 minutes of incubation with the MTS reagent, the endpoint measurements were done in triplicate at 485 nm, using a fluorescence plate reader."}, "[7]": {"system": "A549 human lung cancer cells", "assay": "MTS cytotoxicity assay on A549", "format": "cell-based", "settings": "A549, 72 hours of treatment", "description": "A549 human lung cancer cells were seeded in 96-well plates together with the calix[4]arene of the formula (2). Cells were grown in RPMI-1640 supplemented with GlutaMAX™ (Gibco™) and fetal calf serum (FCS, 10%) and treated with a broad range of concentrations of the calix[4]arene of the formula (2). After 72 hours of treatment, the cytotoxicity was measured by means of the IC50 value, using the kit “CellTiter 96R AQuous One Solution Cell Proliferation Assay (MTS)” from Promega™. Following 30 minutes of incubation with the MTS reagent, the endpoint measurements were done in triplicate at 485 nm, using a fluorescence plate reader.\nA549 human lung cancer cells were seeded in 96-well plates together with the compound of the 2nd comparative example of the formula (XI). Cells were grown in RPMI-1640 supplemented with GlutaMAX™ (Gibco™) and fetal calf serum (FCS, 10%) and treated with a broad range of concentrations of the 2nd comparative example of the formula (XI). After 72 hours of treatment, the cytotoxicity was measured by means of the IC50 value, using the kit “CellTiter 96R AQuous One Solution Cell Proliferation Assay (MTS)” from Promega™. Following 30 minutes of incubation with the MTS reagent, the endpoint measurements were done in triplicate at 485 nm, using a fluorescence plate reader. […]"}, "[8]": {"system": "H322 lung carcinoma cell line", "assay": "Inhibition of H322 cell proliferation (cell count)", "format": "cell-based", "settings": "3 μM, until 72 hours", "protocol": "as §1, with “H322” for “PC9 human”, “carcinoma” for “cancer”, “formula” for “formulation”, “calix[4]arene” for “compound”\nThe FIG. 3 is a graph showing: • the profile of the proliferation index Nt/N0 of the H322 cells after exposure with the calix[4]arene of the formula (2) with respect to the time (i.e. the curve entitled “calix[4]arene (2)”), • the profile of the proliferation index Nt/N0 of the H322 cells without any exposure with the calix[4]arene of the formula (2) with respect to the time (i.e. the curve entitled “untreated”)."}}, "note": "pIC50: −log10 of the molar value."}
{"molecule": "CCCOc1c2cccc1Cc1cccc(c1OCc1nccn1C)Cc1cccc(c1OCCC)Cc1cccc(c1OCc1nccn1C)C2", "note": "[(2)]", "values": [{"measurement": "Cu^+ transport", "setting": "[1]", "value": "Yes (means that a significant decrease of the fluorescence of encapsulated BCS was observed upon addition of Cu^+ to the liposomes (F/F0<0.65 after 600 s))"}, {"measurement": "proliferation index Nt/N0 (FIG. 2)", "setting": "[2]", "value": "clearly inhibits the proliferation"}, {"measurement": "viability at 0.1 µM", "setting": "[3]", "value": 99.9, "unit": "%"}, {"measurement": "viability at 0.5 µM", "setting": "[3]", "value": 93.1, "unit": "%"}, {"measurement": "viability at 1 µM", "setting": "[3]", "value": 75.8, "unit": "%"}, {"measurement": "viability at 1.5 µM", "setting": "[3]", "value": 24.4, "unit": "%"}, {"measurement": "pIC50", "setting": "[4]", "value": 5.69}, {"measurement": "pIC50", "setting": "[5]", "value": 5.98}, {"measurement": "viability at 0.1 µM", "setting": "[6]", "value": 96.5, "unit": "%"}, {"measurement": "viability at 0.5 µM", "setting": "[6]", "value": 94.1, "unit": "%"}, {"measurement": "viability at 1 µM", "setting": "[6]", "value": 87, "unit": "%"}, {"measurement": "viability at 1.5 µM", "setting": "[6]", "value": 62.6, "unit": "%"}, {"measurement": "pIC50", "setting": "[7]", "value": 5.81}, {"measurement": "proliferation index Nt/N0 (FIG. 3)", "setting": "[8]", "value": "clearly inhibits the proliferation"}]}
